According to BindingDB's records for doi:10.1016/j.bmc.2006.09.052 (Kirin Brewery, 2006):

experiment: Inhibition of MCP1-induced cell migration in U937 cells expressing CCR2 by chemotaxis assay

| SMILES | IC50 |
| --- | --- |
| O=C(Nc1ccc2[nH]ncc2c1)C1CCCN(Cc2ccccc2)C1 (stereo unspecified) [1-benzyl-N-(1H-indazol-5-yl)piperidine-3-carboxamide] | 1 µM |
| Nc1ccc(CN2CCCC(Nc3ccc4[nH]ncc4c3)C2)cc1 (stereo unspecified) [N-(1-(4-aminobenzyl)piperidin-3-yl)-1H-indazol-5-amine] | 2 µM |
| Cc1ccc(CN2CCCC(Nc3ccc4[nH]ncc4c3)C2)cc1 (stereo unspecified) [N-(1-(4-methylbenzyl)piperidin-3-yl)-1H-indazol-5-amine] | 1 µM |
| c1csc(CN2CCCC(Nc3ccc4[nH]ncc4c3)C2)c1 (stereo unspecified) [N-(1-(thiophen-2-ylmethyl)piperidin-3-yl)-1H-indazol-5-amine] | 6 µM |
| Clc1ccc(CN2CCC(Nc3ccc4[nH]ncc4c3)C2)cc1 (stereo unspecified) [N-[1-(4-chlorobenzyl)-3-pyrrolidyl]-N-(1H-5-indazolyl)amine] | 1 µM |
| c1ccc(CN2CCC(Oc3ccc4[nH]ncc4c3)CC2)cc1 [1-benzyl-4-piperidyl-(1H-5-indazolyl)ether] | 6 µM |
| Nc1cccc(CN2CCCC(Nc3ccc4[nH]ncc4c3)C2)c1 (stereo unspecified) [N-[1-(3-aminobenzyl)-3-piperidyl]-N-(1H-5-indazolyl)amine] | 3 µM |
| O=C(NCc1ccccc1)Nc1ccc2[nH]ncc2c1 [1-benzyl-3-(1H-indazol-5-yl)urea] | > 100 µM |
| c1c[nH]c(CN2CCCC(Nc3ccc4[nH]ncc4c3)C2)c1 (stereo unspecified) [N-[1-(1H-2-pyrrolylmethyl)-3-piperidyl]-N-(1H-5-indazolyl)amine] | 10 µM |
| Clc1cccc(CN2CCCC(Nc3ccc4[nH]ncc4c3)C2)c1 (stereo unspecified) [N-[1-(3-chlorobenzyl)-3-piperidyl]-N-(1H-5-indazolyl)amine] | 8 µM |
| COc1cc(CN2CCCC(Nc3ccc4[nH]ncc4c3)C2)cc(OC)c1 (stereo unspecified) [N-(1-(3,5-dimethoxybenzyl)piperidin-3-yl)-1H-indazol-5-amine] | > 30 µM |
| O=[N+]([O-])c1ccc(CN2CCCC(Nc3ccc4[nH]ncc4c3)C2)cc1 (stereo unspecified) [N-(1-(4-nitrobenzyl)piperidin-3-yl)-1H-indazol-5-amine] | 19 µM |
| Clc1ccc(CN2CCCC(Nc3ccc4[nH]ncc4c3)C2)cc1 (stereo unspecified) [N-(1-(4-chlorobenzyl)piperidin-3-yl)-1H-indazol-5-amine] | 1 µM |
| c1ccc(CN2CCCC(Nc3ccc4[nH]ncc4c3)C2)cc1 (stereo unspecified) [N-(1-benzylpiperidin-3-yl)-1H-indazol-5-amine] | 2 µM |
| c1ccc(CN2CCC(Nc3ccc4[nH]ncc4c3)CC2)cc1 [N-(1-benzylpiperidin-4-yl)-1H-indazol-5-amine] | 30 µM |
| Clc1ccccc1CN1CCC(Nc2ccc3[nH]ncc3c2)C1 (stereo unspecified) [N-[1-(2-chlorobenzyl)-3-pyrrolidyl]-N-(1H-5-indazolyl)amine] | 7 µM |

| SMILES | IC50 |
| --- | --- |
| c1cc(CN2CCCC(Nc3ccc4[nH]ncc4c3)C2)ccn1 (stereo unspecified) [N-(1-(pyridin-4-ylmethyl)piperidin-3-yl)-1H-indazol-5-amine] | > 30 µM |
| Clc1ccccc1CN1CCCC(Nc2ccc3[nH]ncc3c2)C1 (stereo unspecified) [N-[1-(2-chlorobenzyl)-3-piperidyl]-N-(1H-5-indazolyl)amine] | 8 µM |
| c1cc(CN2CCCC(Nc3ccc4[nH]ncc4c3)C2)cs1 (stereo unspecified) [N-(1-(thiophen-3-ylmethyl)piperidin-3-yl)-1H-indazol-5-amine] | 1 µM |
| O=[N+]([O-])c1cccc(CN2CCCC(Nc3ccc4[nH]ncc4c3)C2)c1 (stereo unspecified) [N-[1-(3-nitrobenzyl)-3-piperidyl]-N-(1H-5-indazolyl)amine] | 19 µM |
| Fc1ccc(CN2CCCC(Nc3ccc4[nH]ncc4c3)C2)cc1 (stereo unspecified) [N-(1-(4-fluorobenzyl)piperidin-3-yl)-1H-indazol-5-amine] | 4 µM |
| c1coc(CN2CCCC(Nc3ccc4[nH]ncc4c3)C2)c1 (stereo unspecified) [N-(1-(furan-2-ylmethyl)piperidin-3-yl)-1H-indazol-5-amine] | 5 µM |
| Nc1ccccc1CN1CCCC(Nc2ccc3[nH]ncc3c2)C1 (stereo unspecified) [N-[1-(2-aminobenzyl)-3-piperidyl]-N-(1H-5-indazolyl)amine] | 1 µM |
| Fc1ccc(CN2CCCC(Nc3ccc4[nH]ncc4c3)C2)cc1F (stereo unspecified) [N-(1-(3,4-difluorobenzyl)piperidin-3-yl)-1H-indazol-5-amine] | 1 µM |
| c1ccc(CN2CCC(Nc3ccc4[nH]ncc4c3)C2)cc1 (stereo unspecified) [N-(1-benzylpyrrolidin-3-yl)-1H-indazol-5-amine] | 10 µM |
| c1ccc(CN2CCCC(Oc3ccc4[nH]ncc4c3)C2)cc1 (stereo unspecified) [1-benzyl-3-piperidyl-(1H-5-indazolyl)ether] | 1 µM |
| O=C(NCc1ccc(Cl)cc1Cl)Nc1ccc2[nH]ncc2c1 [N-(2,4-dichlorobenzyl)-N0-(1H-5-indazolyl)urea] | > 100 µM |
| c1cncc(CN2CCCC(Nc3ccc4[nH]ncc4c3)C2)c1 (stereo unspecified) [N-[1-(3-pyridylmethyl)-3-piperidyl]-N-(1H-5-indazolyl)amine] | 20 µM |
| Clc1cccc(CN2CCC(Nc3ccc4[nH]ncc4c3)C2)c1 (stereo unspecified) [N-[1-(3-chlorobenzyl)-3-pyrrolidyl]-N-(1H-5-indazolyl)amine] | 5 µM |
| O=C(NCc1c(F)cccc1F)Nc1ccc2[nH]ncc2c1 [N-(2,6-difluorobenzyl)-N0-(1H-5-indazolyl)urea] | > 100 µM |
| COc1ccc(CN2CCCC(Nc3ccc4[nH]ncc4c3)C2)cc1 (stereo unspecified) [N-(1-(4-methoxybenzyl)piperidin-3-yl)-1H-indazol-5-amine] | 1 µM |
